# Test results taken from the supplement of paper PMC10307832.
# Key:
# Experiment in all cases: relative viability (nuclei count vs DMSO), 5 days (fraction); higher = more cells survive
# Ricolinostat + Olaparib = compound: O=C(CCCCCCNC(=O)c1cnc(N(c2ccccc2)c2ccccc2)nc1)NO [Ricolinostat] + O=C(c1cc(Cc2n[nH]c(=O)c3ccccc23)ccc1F)N1CCN(C(=O)C2CC2)CC1 [Olaparib] (partner 8 µM)
# Outline: (§1)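 Lung cancer cell lines were pin-tool dosed in 1536-well plates on the day after seeding, with either a lone drug or a fixed anchor-drug dose plus five library-drug doses (not always all listed) in √10 steps. Nuclei were counted on 4× images after 5 days. Relative viability is the ratio of treated-well to vehicle-well nuclei counts, with each value a median of duplicate plates.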
# [1] = compound: O=C(CCCCCCNC(=O)c1cnc(N(c2ccccc2)c2ccccc2)nc1)NO [Ricolinostat] + N=C(N)NC(=N)NCCc1ccccc1 [Phenformin] (partner 250 µM)
# Outline: as §1
# [2] = compound: C1=CC=C(C(=C1)C2=CC=C(C=C2)C3=CSC4=C3C(=C(C(=O)N4)C#N)O)O + CC(=O)Nc1cccc(-n2c(=O)n(C3CC3)c(=O)c3c(Nc4ccc(I)cc4F)n(C)c(=O)c(C)c32)c1 [Trametinib] (partner 0.02 µM)
# Outline: as §1
# [3] = compound: O=C(CCCCCCNC(=O)c1cnc(N(c2ccccc2)c2ccccc2)nc1)NO [Ricolinostat] + CC1(C)CCC(c2ccc(Cl)cc2)=C(CN2CCN(c3ccc(C(=O)NS(=O)(=O)c4ccc(N[C@H](CCN5CCOCC5)CSc5ccccc5)c(S(=O)(=O)C(F)(F)F)c4)cc3)CC2)C1 [Navitoclax] (partner 0.5 µM)
# Outline: as §1
Cell Line,relative viability (Ricolinostat + Olaparib; first compound 0.08 µM),relative viability (Ricolinostat + Olaparib; first compound 0.253 µM),relative viability (Ricolinostat + Olaparib; first compound 0.8 µM),relative viability (Ricolinostat + Olaparib; first compound 2.53 µM),relative viability ([1]; first compound 0.08 µM),relative viability ([1]; first compound 0.253 µM),relative viability ([1]; first compound 0.8 µM),relative viability ([1]; first compound 2.53 µM),relative viability ([2]; first compound 0.08 µM),relative viability ([2]; first compound 0.253 µM),relative viability ([2]; first compound 0.8 µM),relative viability ([2]; first compound 2.53 µM),relative viability ([2]; first compound 8 µM),relative viability ([3]; first compound 0.08 µM),relative viability ([3]; first compound 0.253 µM),relative viability ([3]; first compound 0.8 µM),relative viability ([3]; first compound 2.53 µM)
NCI-H727,0.827,0.624,0.75,0.611,0.342,0.734,0.529,0.572,0.39,0.373,0.384,0.423,0.331,0.356,0.55,0.397,0.405
NCI-H2170,0.569,0.507,0.625,0.539,0.394,0.426,0.407,0.373,0.87,0.979,0.865,0.986,0.778,0.607,0.495,0.633,0.662
201T,0.785,0.845,0.891,0.806,0.41,0.449,0.452,0.467,0.734,0.744,0.737,0.734,0.832,1.21,1.16,1.23,1.24
NCI-H838,0.802,0.788,0.787,0.404,0.48,0.689,0.64,0.571,0.488,0.485,0.654,0.456,0.331,0.97,1.13,1.19,0.967
NCI-H1915,0.255,0.237,0.248,0.201,0.324,0.358,0.347,0.363,0.304,0.303,0.505,0.314,0.316,0.797,0.746,0.778,0.712
LCLC-103H,0.675,0.655,0.771,0.743,0.252,0.323,0.371,0.325,0.729,0.618,0.682,0.632,0.62,,,,
SK-LU-1,0.371,0.478,0.362,0.382,0.449,0.666,0.565,0.395,0.412,0.408,0.505,0.476,0.426,0.863,0.816,0.642,0.502
NCI-H2347,0.51,0.604,0.612,0.586,0.295,0.32,0.337,0.302,0.287,0.304,0.243,0.255,0.286,0.623,0.739,0.73,0.671
ABC-1,0.781,1.05,1.08,1.01,0.27,0.24,0.253,0.274,,,,,,,,,
NCI-H1563,,,,,0.596,0.647,0.685,0.671,,,,,,,,,
NCI-H1355,0.647,0.723,0.707,0.688,0.412,0.451,0.427,0.439,0.484,0.495,0.416,0.432,0.454,,0.916,0.887,0.747
